Entries after “also recorded” stand apart in the source; their conditions may differ. Read-outs that look alike come from different tables or passages of the source.

The ED50 is the midpoint of the dose-response relation.

Data set [1] deals with phenylquinone. Put plainly: Writhing test, acute (phenylquinone writhing, analgesic activity). The following applies: Mus musculus, mice, acute, phenylquinone 2 mg/kg i.p., hydrochloride. Type of data set: in vivo. Here is the method: (§1) The pharmacological investigations were conducted on mice weighing 20-22 g. or on rats weighing 80-110 g. Unless indicated otherwise, the test substances were administered in the form of the hydrochloride acid addition salt thereof in an isotonic NaCl solution, and the animals were examined 30 minutes after subcutaneous (sc) application. The injection volume was respectively 5 ml./kg. of body weight. 10-40 controls animals were used in each experiment. The test and control solutions were administered in accordance with a randomized injection schedule. Seven logarithmically spaced dosages were employed of each test substance. The effective dose (ED) was calculated by probit analysis (Finney, D. J., "Probit Analysis," Cambridge University Press, 2nd Edition, Cambridge 1957). ED50 figures were rounded.
(§2) In the acute test, the test compounds were administered perorally (p.o.) or subcutaneously (s.c.) to mice. Eight mice were used per dose. Seven minutes prior to the testing, the animals received 2 mg./kg. of phenylquinone intraperitoneally. […] The criterion for protective effect was absence of writhes during the eighth minute after phenylquinone administration.
For orientation: Writhing tests count abdominal constrictions after an irritant is injected.

The subject of data set [2] is morphine. The arrangement: species or system mice. The following applies: mouse, in vivo; for ED50, Morphine Antagonism-Tail-Flick Test, Mice: sc, 12.5 mg/kg. In general terms: In hot-plate and tail-flick tests a longer latency is read as antinociception.
The test system of data set [3] is morphine. Put plainly: animal or person. Type of data set: in vivo, rats. The following applies: for ED50: Rattus norvegicus, sc, read-out: ED50, Morphine Antagonism-Tail-Flick Test, Rats.
Data set [4] relates to morphine. Put plainly: Precipitated Withdrawal Jumping Test (morphine antagonism in morphine-dependent mice). Type of data set: in vivo. The note with it: morphine-dependent mice. On the procedure:
as §1
The test compound was given to dose groups of 8 animals. The antagonist-precipitated withdrawal jumping frequencies were recorded during three 5-minute observation intervals uniformly distributed over 30 minutes after administration of the test compound. […] The criterion for a precipitating effect is a mean jumping frequency of >1/minute.

Another data set has as its system electroshock. Briefly: Maximal electroshock test. Type of data set: in vivo. The note with it: mice; for ED50: Mus musculus, sc, 0.5 h, 16 mA/50 c.p.s., 0.2 second, transcorneal, absence of tonic extensor cramp of hind limbs, 30 min. Here is the method:
10-40 controls animals were used in each experiment. […] ED50 figures were rounded.
In the maximum electroshock test, the test substances were administered to dose groups of 6 mice. Sinusoidal pulses of 16 milliamperes/50 c.p.s. [Hertz] and 0.2 second duration were delivered transcorneally via silver electrodes. The shock intensity used elicits nonlethal tonic-clonic convulsions in control animals (p <0.01, N = 192). The criterion for protective effect was the absence of the tonic extensor cramp of the hind limbs after shock application (modified test according to Swinyard et al., J. Pharmacol. Exp. Ther. 106, 319, 1952).
In general terms: Protection in the maximal electroshock model is a classic sign of anticonvulsant action.

A further data set deals with apomorphine. Briefly: Apomorphine antagonism test. Type of data set: in vivo, mice. The note with it: Mus musculus, sc, read-out: ED50, Apomorphine Antagonism. On the procedure: as §1
The criterion for antagonistic effect was the absence of stereotyped movements within an observation period of one minute.

The conditions of data set [5]: J. Pharmacol. Exp. Ther. 144, 12, 1964; Clin. Pharmacol. Ther. 11:1, 41, 1970; cited from earlier work.
Data set [6] concerns phenylquinone. The note with it: mice; after subchronic administration of equal total doses. Here is the method: as §1, §2
In the subchronic test, the same test was performed 25 hours after the last injection of a 64-hour pretreatment period, with the test compound being administered subcutaneously. During the pretreatment period, the subjects received a total of 550 mg/kg. of the test compound, with the test compound being injected over a period of 22 hours in 4 increasing dosages in salt form, and over an additional 42 hours in 2 identical dosages in free base form in sesame oil.

In the next data set the test system is naloxone. Put plainly: Naloxone challenge after subchronic administration of test compound (physical dependency). The following applies: mice; naloxone in doses of up to 100 mg/kg; same schedule and total dosage as for acute morphine dependency.
[7] abbreviates: po, 10 min, p.o., 10 min p.i., ED50 rounded, read-out: ED50, writhing test, acute p.o., 10 min. p.i.
Where [8] appears, read: po, 0.5 h, p.o., 30 min p.i., ED50 rounded, read-out: ED50, writhing test, acute p.o., 30 min. p.i.
Where [9] appears, read: sc, 10 min, s.c., 10 min p.i., ED50 rounded, read-out: ED50, writhing test, acute s.c., 10 min. p.i.
Setting [10] is: sc, 0.5 h, s.c., 30 min p.i., * = significant difference between acute and subchronic ED50 (p < 0.001), read-out: ED50, writhing test, acute s.c., 30 min. p.i.

In the case of `C[C@H]1[C@H]2Cc3ccc(O)cc3[C@]1(C)CCN2CC1CC1` [Cyclazocine, reference compound], the ED50 was 6 mg/kg in the data set with phenylquinone [1] (setting [7]); 8 mg/kg in the data set on phenylquinone [1] (setting [8]); 0.06 mg/kg in the data set with phenylquinone [1] (setting [9]); 0.09 mg/kg in the data set with phenylquinone [1] (setting [10]); 0.2 mg/kg in the data set with morphine [3]; 2 mg/kg in the data set on electroshock. Besides, in the data set on apomorphine, the 50% effective dose (ED50) was determined as 6 mg/kg. The “ED50, Morphine Antagonism-Tail-Flick Test, Mice” value in the data set with morphine [2] is given as 0.1 mg/kg. The “precipitated withdrawal effect (in words)” value in the data set on morphine [4] is listed as “inactivity”. Further, the “sedative and muscle-relaxant effect (explaining inactivity in jumping test)” value in the data set on morphine [4] was “simultaneous sedative and muscle-relaxant effect”. Also, the “ED50, Precipitated Withdrawal Jumping Test (inactive, footnote 2)” value in the data set with morphine [4] (tested at 0.55 - 3.13 mg/kg) is “Inactive”. In addition, the “muscle-relaxant and anti-convulsant effect in maximum electroshock test (in words)” value in the data set with electroshock was “strong muscle-relaxant and anti-convulsant effect”. In addition, in [5], the “properties of cyclazocine from the literature” value is listed as “narcotic partial antagonist of the benzomorphan series with analgesic; also recorded: antidepressant properties”.
On to `CC(C)=CCN1CCC2(C)c3cc(O)ccc3CC1C2C` (stereo not drawn) [Pentazocine, reference compound], for which the median effective dose (ED50) is 50 mg/kg in the data set on phenylquinone [1] (setting [7]); 70 mg/kg with phenylquinone [1] (setting [8]); 3 mg/kg with phenylquinone [1] (setting [9]); 3 mg/kg in the data set on phenylquinone [1] (setting [10]); 40 mg/kg in the data set on morphine [3]; 17 mg/kg with electroshock. Besides, the 50% effective dose (ED50) in the data set with apomorphine is 40 mg/kg. Further, the tolerance development entry with phenylquinone [6] was “do not exhibit tolerance development”. In the data set on morphine [2], the “morphine-antagonistic activity, tail-flick test (in words), mice” value is reported as “weaker activity”. In addition, the “ED50, Morphine Antagonism-Tail-Flick Test, Mice” value in the data set on morphine [2] was determined as 5 mg/kg. For the same compound, the “morphine-antagonistic activity, tail-flick test (in words), rats” value in the data set with morphine [3] (rat, in vivo) is “weaker activity, especially in rats”. For the same compound, in the data set on morphine [4], the “precipitated withdrawal effect (in words)” value is “completely inactive”. Also, in the data set on morphine [4] (tested at 0.78 - 50 mg/kg), the “ED50, Precipitated Withdrawal Jumping Test (inactive, footnote 3)” value is reported as “Inactive”. Besides, in the data set on naloxone, the “withdrawal jumping precipitated by naloxone after subchronic administration (morphine-like physical dependency)” value was “no withdrawal jumping is precipitated”.

The values are drawn from US4020164A, “Benzomorphan derivatives” (priority 1972, dated 1977).
